Values of other authors in patent publication US6774131B1, “Remedies for endothelin-induced diseases” (Yamanouchi Pharmaceutical Co., Ltd., priority 2000, dated 2004).

Key:
[1] = 20 mg; 6th International Conference on Endothelin, Abstract No. 219; cited from earlier work
[2] = tested on: prostate cancer patients; conditions: reported, Proceeding of ASCO,19,1314,2000; cited from earlier work

For `CCCCN(CCCC)C(=O)CN1C[C@H](c2ccc3c(c2)OCO3)[C@@H](C(=O)O)[C@@H]1c1ccc(OC)cc1` [ABT-627, 1-(N,N-dibutylcarbamoylmethyl)-2(R)-(4-methoxyphenyl)-4(S)-(3,4-methylenedioxyphenyl)pyrrolidine-3(R)-carboxylic acid], the AUC [1] is listed as 802 ng·h/mL, the Cmax [1] is listed as 93.5 ng/mL and the T max [1] is listed as 0.6 h. The “T ½” value [1] was 28.4 h and the minimum effective dose [2] was 10 mg.
